Calls of active or inactive are those of the source. No cut-off for these calls is given here.
Assays:
[1] = molecular target: T1, Lysine-specific demethylase 4C (Homo sapiens, UniProt Q9H3R0); test: Inhibition of full-length KDM4C (unknown origin) expressed in human KYSE-150 cells assessed as increase in H3K36me3 level after 24 hrs by HTRF assay
T1 sequence (Q9H3R0 whole entry): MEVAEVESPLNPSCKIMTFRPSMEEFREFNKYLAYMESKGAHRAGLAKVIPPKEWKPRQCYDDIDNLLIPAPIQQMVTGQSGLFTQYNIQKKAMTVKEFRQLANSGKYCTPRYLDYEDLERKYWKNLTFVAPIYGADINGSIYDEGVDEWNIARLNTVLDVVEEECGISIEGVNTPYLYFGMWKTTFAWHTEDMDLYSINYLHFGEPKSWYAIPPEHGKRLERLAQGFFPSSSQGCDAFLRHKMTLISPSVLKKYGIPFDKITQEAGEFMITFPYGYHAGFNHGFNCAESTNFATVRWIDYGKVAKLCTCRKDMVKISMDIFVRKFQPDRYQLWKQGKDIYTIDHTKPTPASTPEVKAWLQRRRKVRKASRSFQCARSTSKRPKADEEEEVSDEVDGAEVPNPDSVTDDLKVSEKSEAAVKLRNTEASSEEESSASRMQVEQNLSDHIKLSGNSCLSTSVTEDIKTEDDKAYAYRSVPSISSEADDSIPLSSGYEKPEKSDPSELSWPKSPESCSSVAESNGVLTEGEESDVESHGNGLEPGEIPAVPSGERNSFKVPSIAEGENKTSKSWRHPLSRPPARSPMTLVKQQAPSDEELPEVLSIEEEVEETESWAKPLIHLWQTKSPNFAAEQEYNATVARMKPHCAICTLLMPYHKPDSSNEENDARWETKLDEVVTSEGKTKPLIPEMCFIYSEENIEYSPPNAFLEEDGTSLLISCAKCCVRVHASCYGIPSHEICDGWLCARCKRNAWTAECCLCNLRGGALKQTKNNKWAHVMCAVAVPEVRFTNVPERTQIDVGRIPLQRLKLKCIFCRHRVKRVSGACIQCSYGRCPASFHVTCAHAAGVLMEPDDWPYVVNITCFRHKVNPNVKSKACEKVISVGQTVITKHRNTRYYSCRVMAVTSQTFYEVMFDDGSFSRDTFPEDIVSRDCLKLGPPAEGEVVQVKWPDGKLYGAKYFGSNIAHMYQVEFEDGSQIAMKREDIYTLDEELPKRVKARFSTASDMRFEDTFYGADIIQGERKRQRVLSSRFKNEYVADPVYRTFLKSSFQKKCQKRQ

[2] = molecular target: T1, Lysine-specific demethylase 4C; test: Inhibition of KDM4C (unknown origin) using biotinylated H3K9me3 peptide and alpha-ketoglutarate as substrate pretreated for 1 hr followed by substrate addition measured after 20 mins in presence of 0.2 mg/ml BSA by LANCE TR-FRET assay
[3] = molecular target: Lysine-specific demethylase 6B (Homo sapiens, UniProt O15054); test: Inhibition of KDM6B (unknown origin) using biotinylated H3K27me3 peptide and alpha-ketoglutarate as substrate pretreated for 1 hr followed by substrate addition measured after 20 mins by LANCE TR-FRET assay
Chain of Lysine-specific demethylase 6B (O15054 whole entry): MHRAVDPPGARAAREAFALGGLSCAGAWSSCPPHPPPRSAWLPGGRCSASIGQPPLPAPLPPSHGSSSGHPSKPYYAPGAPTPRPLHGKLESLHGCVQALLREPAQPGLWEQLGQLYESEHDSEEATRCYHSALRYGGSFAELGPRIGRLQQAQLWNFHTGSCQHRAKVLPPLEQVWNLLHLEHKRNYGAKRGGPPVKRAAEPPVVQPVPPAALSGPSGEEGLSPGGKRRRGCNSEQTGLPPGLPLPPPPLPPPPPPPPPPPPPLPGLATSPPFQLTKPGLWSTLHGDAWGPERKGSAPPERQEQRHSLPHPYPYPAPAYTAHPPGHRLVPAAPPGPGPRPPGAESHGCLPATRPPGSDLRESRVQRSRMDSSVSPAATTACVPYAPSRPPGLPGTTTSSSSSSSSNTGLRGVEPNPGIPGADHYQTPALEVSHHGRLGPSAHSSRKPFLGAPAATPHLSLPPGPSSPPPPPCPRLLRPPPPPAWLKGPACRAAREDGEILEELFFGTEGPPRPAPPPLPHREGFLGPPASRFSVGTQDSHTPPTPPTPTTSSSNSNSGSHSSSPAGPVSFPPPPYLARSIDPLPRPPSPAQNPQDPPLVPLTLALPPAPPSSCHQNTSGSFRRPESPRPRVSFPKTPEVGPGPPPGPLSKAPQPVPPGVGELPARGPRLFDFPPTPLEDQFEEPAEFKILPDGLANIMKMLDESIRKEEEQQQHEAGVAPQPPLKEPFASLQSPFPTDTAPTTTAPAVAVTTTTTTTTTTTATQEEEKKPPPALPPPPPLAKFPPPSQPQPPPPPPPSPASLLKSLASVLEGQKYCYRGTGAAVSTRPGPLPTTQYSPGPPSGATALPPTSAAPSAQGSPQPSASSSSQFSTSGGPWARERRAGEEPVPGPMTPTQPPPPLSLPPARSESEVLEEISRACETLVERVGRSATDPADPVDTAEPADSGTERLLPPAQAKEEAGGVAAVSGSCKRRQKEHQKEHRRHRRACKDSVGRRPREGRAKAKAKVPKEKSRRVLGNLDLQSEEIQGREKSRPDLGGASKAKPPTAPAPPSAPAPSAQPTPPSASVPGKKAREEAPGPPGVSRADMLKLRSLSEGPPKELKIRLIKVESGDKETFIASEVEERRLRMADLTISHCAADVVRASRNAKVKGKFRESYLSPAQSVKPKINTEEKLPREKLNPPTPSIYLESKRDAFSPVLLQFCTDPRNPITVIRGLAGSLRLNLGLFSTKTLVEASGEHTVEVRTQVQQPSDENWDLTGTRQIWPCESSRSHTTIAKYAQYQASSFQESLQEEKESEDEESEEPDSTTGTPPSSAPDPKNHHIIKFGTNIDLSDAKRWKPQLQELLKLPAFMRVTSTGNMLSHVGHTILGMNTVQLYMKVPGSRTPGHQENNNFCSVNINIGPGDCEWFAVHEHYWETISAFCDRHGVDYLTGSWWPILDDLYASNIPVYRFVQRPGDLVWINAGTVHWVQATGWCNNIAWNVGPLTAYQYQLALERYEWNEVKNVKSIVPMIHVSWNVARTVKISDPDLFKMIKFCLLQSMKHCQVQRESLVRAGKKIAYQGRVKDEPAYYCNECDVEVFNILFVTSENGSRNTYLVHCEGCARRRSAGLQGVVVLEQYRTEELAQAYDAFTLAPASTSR

[4] = molecular target: T2, Lysine-specific demethylase 3A (Homo sapiens, UniProt Q9Y4C1); test: Inhibition of KDM3A (unknown origin) using biotinylated H3K9me1 peptide and alpha-ketoglutarate as substrate measured after 20 mins by LANCE TR-FRET assay
T2 sequence (Q9Y4C1 whole entry): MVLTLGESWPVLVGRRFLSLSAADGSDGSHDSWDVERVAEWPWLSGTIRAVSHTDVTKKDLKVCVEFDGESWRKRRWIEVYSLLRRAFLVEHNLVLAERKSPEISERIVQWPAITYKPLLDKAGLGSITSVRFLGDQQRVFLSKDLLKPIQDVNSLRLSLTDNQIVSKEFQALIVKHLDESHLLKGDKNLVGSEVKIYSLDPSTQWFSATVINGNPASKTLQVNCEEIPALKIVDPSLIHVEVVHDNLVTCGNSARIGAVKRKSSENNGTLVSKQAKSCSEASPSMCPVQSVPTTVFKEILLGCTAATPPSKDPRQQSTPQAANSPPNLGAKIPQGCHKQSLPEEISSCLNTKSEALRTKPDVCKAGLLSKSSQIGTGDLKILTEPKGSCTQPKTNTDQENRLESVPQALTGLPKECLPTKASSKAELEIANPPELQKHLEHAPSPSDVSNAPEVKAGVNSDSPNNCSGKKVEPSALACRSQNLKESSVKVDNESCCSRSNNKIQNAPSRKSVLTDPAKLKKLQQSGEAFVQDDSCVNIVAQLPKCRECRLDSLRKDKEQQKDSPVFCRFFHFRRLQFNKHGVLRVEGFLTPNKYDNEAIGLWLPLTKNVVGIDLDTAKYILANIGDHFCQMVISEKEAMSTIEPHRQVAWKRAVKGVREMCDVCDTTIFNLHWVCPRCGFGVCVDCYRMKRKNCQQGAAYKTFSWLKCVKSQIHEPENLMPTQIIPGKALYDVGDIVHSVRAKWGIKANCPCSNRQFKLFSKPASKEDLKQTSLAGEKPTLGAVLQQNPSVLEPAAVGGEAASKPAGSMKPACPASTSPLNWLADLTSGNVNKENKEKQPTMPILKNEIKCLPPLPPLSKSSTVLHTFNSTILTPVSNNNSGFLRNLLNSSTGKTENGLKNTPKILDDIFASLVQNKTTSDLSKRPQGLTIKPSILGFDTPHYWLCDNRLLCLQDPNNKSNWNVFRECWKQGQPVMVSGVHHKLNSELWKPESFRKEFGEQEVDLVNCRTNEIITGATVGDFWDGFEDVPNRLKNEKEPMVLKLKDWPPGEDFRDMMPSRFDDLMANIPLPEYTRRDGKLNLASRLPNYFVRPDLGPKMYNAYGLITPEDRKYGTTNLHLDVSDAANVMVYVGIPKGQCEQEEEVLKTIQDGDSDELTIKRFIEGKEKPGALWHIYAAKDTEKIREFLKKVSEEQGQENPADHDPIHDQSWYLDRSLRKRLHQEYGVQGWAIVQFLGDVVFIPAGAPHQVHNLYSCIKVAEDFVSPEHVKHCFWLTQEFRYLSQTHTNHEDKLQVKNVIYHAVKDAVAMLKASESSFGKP

[5] = molecular target: T1, Lysine-specific demethylase 4C; test: Inhibition of KDM4C (unknown origin) using biotinylated H3K9me3 peptide and alpha-ketoglutarate as substrate pretreated for 1 hr followed by substrate addition measured after 20 mins in presence of 0.02 mg/ml BSA by LANCE TR-FRET assay
[6] = Systemic clearance in CD-1 mouse at 5 mg/kg, iv; type: ADME, organism-based; details: in vivo
[7] = molecular target: Histone lysine demethylase PHF8 (Homo sapiens, UniProt Q9UPP1); test: Inhibition of PHF8 (unknown origin) using biotinylated H3K9me1 peptide and alpha-ketoglutarate as substrate measured after 20 mins by LANCE TR-FRET assay
Chain of Histone lysine demethylase PHF8 (Q9UPP1 whole entry): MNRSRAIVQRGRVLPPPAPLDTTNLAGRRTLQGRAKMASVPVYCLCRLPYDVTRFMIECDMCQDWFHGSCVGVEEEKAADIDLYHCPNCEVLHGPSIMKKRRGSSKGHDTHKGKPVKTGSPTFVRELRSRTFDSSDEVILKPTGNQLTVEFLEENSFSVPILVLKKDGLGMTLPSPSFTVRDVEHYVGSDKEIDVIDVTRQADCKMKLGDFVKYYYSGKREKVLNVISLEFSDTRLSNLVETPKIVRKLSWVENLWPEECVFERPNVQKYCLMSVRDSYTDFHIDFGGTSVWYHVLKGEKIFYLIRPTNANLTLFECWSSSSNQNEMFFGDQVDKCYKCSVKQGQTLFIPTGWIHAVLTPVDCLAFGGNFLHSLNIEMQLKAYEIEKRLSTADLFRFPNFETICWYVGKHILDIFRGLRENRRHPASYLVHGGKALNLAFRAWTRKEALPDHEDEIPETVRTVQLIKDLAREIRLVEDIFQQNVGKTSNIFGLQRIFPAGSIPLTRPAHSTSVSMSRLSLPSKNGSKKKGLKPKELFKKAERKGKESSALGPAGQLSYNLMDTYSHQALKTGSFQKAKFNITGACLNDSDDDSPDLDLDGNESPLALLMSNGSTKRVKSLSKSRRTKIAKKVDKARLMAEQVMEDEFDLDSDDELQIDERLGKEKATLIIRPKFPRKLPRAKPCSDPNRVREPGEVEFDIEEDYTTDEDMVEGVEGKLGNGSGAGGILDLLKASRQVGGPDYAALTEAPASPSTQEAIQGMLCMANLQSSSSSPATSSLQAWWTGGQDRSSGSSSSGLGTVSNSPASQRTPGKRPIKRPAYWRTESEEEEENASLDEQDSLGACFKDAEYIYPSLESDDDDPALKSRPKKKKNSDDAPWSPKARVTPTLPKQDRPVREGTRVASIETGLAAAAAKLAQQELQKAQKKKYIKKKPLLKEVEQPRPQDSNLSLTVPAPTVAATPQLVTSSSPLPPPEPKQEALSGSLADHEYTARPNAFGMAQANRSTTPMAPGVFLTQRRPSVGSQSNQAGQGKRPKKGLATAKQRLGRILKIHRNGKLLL

[8] = Oral bioavailability in CD-1 mouse at 10 mg/kg; type: ADME, organism-based; details: in vivo
[9] = molecular target: T3, Lysine-specific demethylase 2B (Homo sapiens, UniProt Q8NHM5); test: Inhibition of KDM2B (unknown origin) using biotinylated H3K36me2 peptide and alpha-ketoglutarate as substrate pretreated for 1 hr followed by substrate addition measured after 20 mins by LANCE TR-FRET assay
T3 sequence (Q8NHM5 whole entry): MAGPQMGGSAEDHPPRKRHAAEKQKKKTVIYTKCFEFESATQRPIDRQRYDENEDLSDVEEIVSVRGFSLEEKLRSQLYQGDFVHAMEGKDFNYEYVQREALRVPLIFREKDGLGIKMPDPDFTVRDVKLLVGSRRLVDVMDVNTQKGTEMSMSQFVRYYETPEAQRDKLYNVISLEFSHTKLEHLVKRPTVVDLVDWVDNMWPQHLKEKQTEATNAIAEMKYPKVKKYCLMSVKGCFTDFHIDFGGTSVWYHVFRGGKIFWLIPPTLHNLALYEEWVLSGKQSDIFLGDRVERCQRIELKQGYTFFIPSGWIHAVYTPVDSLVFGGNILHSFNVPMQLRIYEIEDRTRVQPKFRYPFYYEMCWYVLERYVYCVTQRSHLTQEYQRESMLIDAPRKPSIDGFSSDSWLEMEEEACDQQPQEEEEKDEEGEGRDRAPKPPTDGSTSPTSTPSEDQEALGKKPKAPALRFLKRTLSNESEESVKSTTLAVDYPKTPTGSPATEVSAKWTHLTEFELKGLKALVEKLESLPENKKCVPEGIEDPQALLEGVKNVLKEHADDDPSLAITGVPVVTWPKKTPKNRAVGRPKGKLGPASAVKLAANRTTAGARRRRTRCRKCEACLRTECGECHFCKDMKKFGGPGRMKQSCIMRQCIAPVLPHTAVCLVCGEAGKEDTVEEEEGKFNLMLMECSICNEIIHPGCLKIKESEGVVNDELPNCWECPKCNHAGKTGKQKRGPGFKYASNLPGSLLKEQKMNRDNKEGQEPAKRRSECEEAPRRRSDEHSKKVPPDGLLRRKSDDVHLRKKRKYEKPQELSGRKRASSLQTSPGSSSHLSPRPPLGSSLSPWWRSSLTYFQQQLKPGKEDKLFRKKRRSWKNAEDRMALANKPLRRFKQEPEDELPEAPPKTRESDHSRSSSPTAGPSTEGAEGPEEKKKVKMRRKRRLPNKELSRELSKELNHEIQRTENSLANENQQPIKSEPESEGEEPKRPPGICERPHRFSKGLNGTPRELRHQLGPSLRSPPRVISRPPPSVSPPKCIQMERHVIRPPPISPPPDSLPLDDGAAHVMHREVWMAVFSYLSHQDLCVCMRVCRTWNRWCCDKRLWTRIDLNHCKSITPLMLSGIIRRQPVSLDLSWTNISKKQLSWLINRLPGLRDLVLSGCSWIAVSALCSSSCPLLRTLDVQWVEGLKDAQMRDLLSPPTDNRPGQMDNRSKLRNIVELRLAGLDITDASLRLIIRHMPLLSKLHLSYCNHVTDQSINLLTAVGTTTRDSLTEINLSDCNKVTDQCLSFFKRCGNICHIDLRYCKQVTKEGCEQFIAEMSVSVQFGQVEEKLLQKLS

[10] = molecular target: Lysine-specific demethylase 3B (Homo sapiens, UniProt Q7LBC6); test: Inhibition of KDM3B (unknown origin) using biotinylated H3K9me1 peptide and alpha-ketoglutarate as substrate measured after 20 mins by LANCE TR-FRET assay
Chain of Lysine-specific demethylase 3B (Q7LBC6 whole entry): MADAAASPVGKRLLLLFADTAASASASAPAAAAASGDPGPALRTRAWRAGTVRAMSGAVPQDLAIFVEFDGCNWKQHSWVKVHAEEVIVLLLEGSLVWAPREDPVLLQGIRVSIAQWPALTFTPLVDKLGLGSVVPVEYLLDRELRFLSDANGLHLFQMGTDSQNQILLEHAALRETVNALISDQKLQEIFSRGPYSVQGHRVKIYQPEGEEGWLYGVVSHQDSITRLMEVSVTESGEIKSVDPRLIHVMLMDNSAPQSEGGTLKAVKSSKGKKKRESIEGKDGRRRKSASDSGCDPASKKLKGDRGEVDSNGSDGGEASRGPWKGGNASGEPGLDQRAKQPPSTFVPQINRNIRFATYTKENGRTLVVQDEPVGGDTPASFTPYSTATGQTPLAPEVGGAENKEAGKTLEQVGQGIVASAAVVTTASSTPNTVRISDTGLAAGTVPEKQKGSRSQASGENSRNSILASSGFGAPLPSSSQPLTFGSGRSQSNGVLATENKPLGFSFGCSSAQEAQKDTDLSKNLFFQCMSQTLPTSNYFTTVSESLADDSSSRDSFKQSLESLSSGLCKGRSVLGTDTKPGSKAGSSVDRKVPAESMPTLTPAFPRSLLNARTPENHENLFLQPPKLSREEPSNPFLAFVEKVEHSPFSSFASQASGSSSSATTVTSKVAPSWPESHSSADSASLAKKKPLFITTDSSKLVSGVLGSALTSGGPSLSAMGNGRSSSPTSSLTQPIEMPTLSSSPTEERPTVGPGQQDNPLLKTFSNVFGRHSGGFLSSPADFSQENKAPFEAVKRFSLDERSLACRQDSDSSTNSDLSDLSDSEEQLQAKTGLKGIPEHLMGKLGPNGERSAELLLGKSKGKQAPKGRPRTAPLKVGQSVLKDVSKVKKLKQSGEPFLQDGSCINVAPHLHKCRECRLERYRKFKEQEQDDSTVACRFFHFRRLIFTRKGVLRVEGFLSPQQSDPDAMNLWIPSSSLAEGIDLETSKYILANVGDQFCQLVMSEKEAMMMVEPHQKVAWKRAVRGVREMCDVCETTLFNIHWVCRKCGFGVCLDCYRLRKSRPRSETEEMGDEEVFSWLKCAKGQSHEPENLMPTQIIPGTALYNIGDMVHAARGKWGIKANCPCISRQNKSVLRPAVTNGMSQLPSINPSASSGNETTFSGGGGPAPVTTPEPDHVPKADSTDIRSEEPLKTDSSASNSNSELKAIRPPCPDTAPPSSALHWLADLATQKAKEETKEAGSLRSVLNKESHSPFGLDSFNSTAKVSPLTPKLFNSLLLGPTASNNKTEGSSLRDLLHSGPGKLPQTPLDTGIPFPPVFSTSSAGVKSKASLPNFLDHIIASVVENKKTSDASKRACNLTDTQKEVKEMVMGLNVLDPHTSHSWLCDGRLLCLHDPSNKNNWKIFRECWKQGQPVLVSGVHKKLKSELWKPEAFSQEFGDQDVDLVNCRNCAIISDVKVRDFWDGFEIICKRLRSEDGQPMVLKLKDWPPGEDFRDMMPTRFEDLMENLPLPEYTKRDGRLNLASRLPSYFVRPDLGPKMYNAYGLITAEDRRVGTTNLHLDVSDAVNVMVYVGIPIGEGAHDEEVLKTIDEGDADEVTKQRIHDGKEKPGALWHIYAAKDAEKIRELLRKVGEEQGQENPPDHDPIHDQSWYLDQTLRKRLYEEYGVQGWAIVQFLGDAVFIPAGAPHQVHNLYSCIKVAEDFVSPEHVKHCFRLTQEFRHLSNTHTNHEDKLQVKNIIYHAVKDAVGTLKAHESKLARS

[11] = AUC in CD-1 mouse at 10 mg/kg, po; type: ADME, organism-based; details: in vivo
[12] = Volume of distribution in CD-1 mouse at 5 mg/kg, iv; type: ADME, organism-based; details: in vivo
[13] = tested on: KYSE-150 cell line; test: cells; details: Homo sapiens, KYSE-150, 168 h
Description: Antiproliferative activity against human KYSE-150 cells after 168 hrs by 5-bromo-2'-deoxyuridine thymidine incorporation assay

[14] = molecular target: T4, Lysine-specific demethylase 4C (Homo sapiens) (UniProt Q9H3R0); test: Inhibition of full-length KDM4C (unknown origin) expressed in human KYSE-150 cells assessed as increase in H3K36me3 level after 24 hrs by HTRF assay
T4 sequence (whole entry): T1 sequence (Q9H3R0 whole entry)

[15] = species on record: Homo sapiens; test: Inhibition of KDM6 in human KYSE-150 cells assessed as increase in H3K27me3 level at higher concentration after 24 to 96 hrs by UHPLC-MS/MS analysis; type: cell-based
[16] = species on record: Homo sapiens; test: Inhibition of KDM5 in human KYSE-150 cells assessed as increase in H3K4me3 level at higher concentration after 24 hrs by UHPLC-MS/MS analysis; type: cell-based
[17] = molecular target: Lysine-specific histone demethylase 1A (Homo sapiens) (UniProt O60341); test: Inhibition of KDM1 in human KYSE-150 cells assessed as increase in H3K4me2 level at higher concentration after 24 hrs by UHPLC-MS/MS analysis; type: cell-based
[18] = tested on: IMR-90; test: Cytotoxicity against human IMR90 cells; type: cell-based
[19] = Permeability of the compound by PAMPA; type: ADME; details: read-out: permeability

## O=C(O)c1ccncc1NC[C@@H]1CCCc2cc(Sc3ccccc3)ccc21
[1]
  EC50: 19 nM
[2]
  IC50: 48 nM

## CN(c1ccccc1)c1ccc2c(c1)CCC[C@H]2CNc1cnccc1C(=O)O
[1]
  EC50: 1.3 nM
[3]
  IC50: > 4 µM
[4]
  IC50: > 4 µM
[5]
  IC50: 9 nM
[6]
  clearance: 6.9 mL/min/kg
[7]
  IC50: > 4 µM
[8]
  bioavailability: 30%
[9]
  IC50: > 4 µM
[10]
  IC50: > 4 µM
[11]
  AUC: 10400 ng·h/mL
[12]
  Vd: 0.675 L/kg

## O=C(O)c1ccncc1NC[C@@H]1CCCc2ccccc21
[13]
  EC50: 4 µM
[2]
  IC50: 8 nM

## O=C(O)c1ccncc1NCC1CCCc2ccccc21 (centres undefined)
[13]
  EC50: 6 µM
[2]
  IC50: 12 nM

## COc1ccc2c(c1)CCC[C@H]2CNc1cnccc1C(=O)O
[1]
  EC50: 560 nM
[14]
  inhibition: Dose-dependent effect
[15]
  inhibition: Active
[16]
  inhibition: Below limit of detection
[17]
  inhibition: Below limit of detection
[18]
  EC50: > 30 µM
[13]
  EC50: 0.83 µM
[19]
  Papp: 1.84 ×10⁻⁶ cm/s
[2]
  IC50: 6 nM

## O=C(O)c1ccncc1NC[C@H]1CCCc2ccccc21
[14]
  inhibition: inactive
[13]
  EC50: > 100 µM
[2]
  IC50: > 2000 nM

Source: ChEMBL document CHEMBL4190335, “Design of KDM4 Inhibitors with Antiproliferative Effects in Cancer Models” (ACS Med Chem Lett, 2017)
